From patent US20140343049A1, “DIHYDROFURAN DERIVATIVES AS INSECTICIDAL COMPOUNDS” (SYNGENTA PARTICIPATIONS AG, priority 2011, published 2014)

Key:
Type in all cases: in vivo
[1] = tested on: Diabrotica balteata (corn root worm); assay: Diabrotica balteata L2 larvae test on artificial diet; conditions: 120 h, 200 ppm (concentration in well 18 ppm), 5 days, larval mortality and growth regulation
Method: (§1) A 24-well microtiter plate (MTP) with artificial diet was treated with test solutions at an application rate of 200 ppm (concentration in well 18 ppm) by pipetting. After drying, the MTPs were infested with L2 larvae (6-10 per well). After an incubation period of 5 days, samples were checked for larval mortality and growth regulation.
as §1, with “12.5” for “200”, “MTP's” for “MTPs”

[2] = tested on: Heliothis virescens (tobacco budworm); assay: Heliothis virescens egg test on artificial diet; conditions: 96 h, 200 ppm (concentration in well 18 ppm), eggs 0-24 h old, 4 days, egg mortality, larval mortality, growth regulation
Method: Eggs (0-24 h old) were placed in 24-well microtiter plate on artificial diet and treated with test solutions at an application rate of 200 ppm (concentration in well 18 ppm) by pipetting. After an incubation period of 4 days, samples were checked for egg mortality, larval mortality, and growth regulation.

[3] = tested on: Plutella xylostella (diamond back moth); assay: Plutella xylostella L2 larvae test on artificial diet; conditions: 144 h, 200 ppm (concentration in well 18 ppm), 6 days, larval mortality and growth regulation
Method: as §1, with “24-well” for “A 24-well”, “(7-12” for “(6-10”, “6” for “5”

[4] = tested on: Spodoptera littoralis (Egyptian cotton leafworm); assay: Spodoptera littoralis cotton leaf disc spray test; conditions: foliar, 72 h, cotton leaf discs sprayed at 200 ppm, 5 L1 larvae, mortality, feeding behavior, growth regulation 3 days after treatment
Source text: Cotton leaf discs were placed on agar in a 24-well microtiter plate and sprayed with test solutions at an application rate of 200 ppm. After drying, the leaf discs were infested with 5 L1 larvae. The samples were checked for mortality, feeding behavior, and growth regulation 3 days after treatment (DAT).

| SMILES | pest or weed control at 200 ppm [1] [%] | pest or weed control at 200 ppm [2] [%] | pest or weed control at 200 ppm [3] [%] | pest or weed control at 200 ppm [4] [%] |
| --- | --- | --- | --- | --- |
| CCNC(=O)c1ccc(C2=CC(c3cc(Cl)cc(Cl)c3)(C(F)(F)F)OC2)nc1 (centres unmarked) [Compound B2] | ≥ 80 |  |  |  |
| O=C(CNC(=O)c1ccc(C2=CC(c3cc(Cl)cc(Cl)c3)(C(F)(F)F)OC2)nc1)NCC(F)(F)F (centres unmarked) [Compound B5] |  | ≥ 80 |  |  |
| O=C(NCCC(F)(F)F)c1ccc(C2=CC(c3cc(Cl)cc(Cl)c3)(C(F)(F)F)OC2)nc1 (centres unmarked) [Compound B6] | ≥ 80 |  |  |  |
| CCC(C)NC(=O)c1ccc(C2=CC(c3cc(Cl)cc(Cl)c3)(C(F)(F)F)OC2)nc1 (centres unmarked) [Compound B7] |  |  | ≥ 80 |  |
| O=C(NCC1CCCO1)c1ccc(C2=CC(c3cc(Cl)cc(Cl)c3)(C(F)(F)F)OC2)nc1 (centres unmarked) [Compound B8] |  |  | ≥ 80 |  |
| COc1ccc(CNC(=O)c2ccc(C3=CC(c4cc(Cl)cc(Cl)c4)(C(F)(F)F)OC3)nc2)cc1 (centres unmarked) [Compound B12] | ≥ 80 |  |  |  |
| O=C(NCc1ccc(Cl)nc1)c1ccc(C2=CC(c3cc(Cl)cc(Cl)c3)(C(F)(F)F)OC2)nc1 (centres unmarked) [Compound B14] |  | ≥ 80 |  |  |
| CC1(NC(=O)c2ccc(C3=CC(c4cc(Cl)cc(Cl)c4)(C(F)(F)F)OC3)nc2)CSC1 (centres unmarked) [Compound B19] | ≥ 80 |  |  |  |
| O=C(NC1CCC1)c1ccc(C2=CC(c3cc(Cl)cc(Cl)c3)(C(F)(F)F)OC2)nc1 (centres unmarked) [Compound B23] |  |  | ≥ 80 |  |
| Cc1nc(C2=CC(c3cc(Cl)cc(Cl)c3)(C(F)(F)F)OC2)ccc1C(=O)NCCC(F)(F)F (centres unmarked) [Compound C6] | ≥ 80 |  | ≥ 80 | ≥ 80 |
| Cc1nc(C2=CC(c3cc(Cl)cc(Cl)c3)(C(F)(F)F)OC2)ccc1C(=O)NCC1CCCO1 (centres unmarked) [Compound C8] | ≥ 80 | ≥ 80 |  | ≥ 80 |
| Cc1nc(C2=CC(c3cc(Cl)cc(Cl)c3)(C(F)(F)F)OC2)ccc1C(=O)Nc1cccc(F)c1 (centres unmarked) [Compound C15] |  | ≥ 80 | ≥ 80 | ≥ 80 |
| Cc1cc(NC(=O)c2ccc(C3=CC(c4cc(Cl)cc(Cl)c4)(C(F)(F)F)OC3)nc2C)n(C)n1 (centres unmarked) [Compound C16] |  | ≥ 80 | ≥ 80 |  |
| CSCC(C)(C)NC(=O)c1ccc(C2=CC(c3cc(Cl)cc(Cl)c3)(C(F)(F)F)OC2)nc1C (centres unmarked) [Compound C18] | ≥ 80 |  |  | ≥ 80 |
| CCCCNC(=O)c1ccc(C2=CC(c3cc(Cl)cc(Cl)c3)(C(F)(F)F)OC2=O)cc1C (centres unmarked) [Compound E3] |  |  | ≥ 80 |  |
| Cc1cc(C2=CC(c3cc(Cl)cc(Cl)c3)(C(F)(F)F)OC2=O)ccc1C(=O)NCCC(F)(F)F (centres unmarked) [Compound E6] |  |  | ≥ 80 | ≥ 80 |
| Cc1cc(C2=CC(c3cc(Cl)cc(Cl)c3)(C(F)(F)F)OC2=O)ccc1C(=O)NCc1ccccc1 (centres unmarked) [Compound E8] |  |  |  | ≥ 80 |
| Cc1cc(C2=CC(c3cc(Cl)cc(Cl)c3)(C(F)(F)F)OC2=O)ccc1C(=O)NCc1ccccc1F (centres unmarked) [Compound E9] |  |  | ≥ 80 |  |
| COc1ccc(CNC(=O)c2ccc(C3=CC(c4cc(Cl)cc(Cl)c4)(C(F)(F)F)OC3=O)cc2C)cc1 (centres unmarked) [Compound E11] |  |  | ≥ 80 |  |
| Cc1cc(C2=CC(c3cc(Cl)cc(Cl)c3)(C(F)(F)F)OC2=O)ccc1C(=O)NCc1ccccn1 (centres unmarked) [Compound E13] | ≥ 80 |  | ≥ 80 | ≥ 80 |
| Cc1csc(NC(=O)c2ccc(C3=CC(c4cc(Cl)cc(Cl)c4)(C(F)(F)F)OC3=O)cc2C)n1 (centres unmarked) [Compound E15] | ≥ 80 |  |  | ≥ 80 |
| Cc1cc(C2=CC(c3cc(Cl)cc(Cl)c3)(C(F)(F)F)OC2=O)ccc1C(=O)NC1CSC1 (centres unmarked) [Compound E17] | ≥ 80 |  |  |  |
| Cc1cc(C2=CC(c3cc(Cl)cc(Cl)c3)(C(F)(F)F)OC2=O)ccc1C(=O)NC1C[S+]([O-])C1 (centres unmarked) [Compound E19] |  |  |  | ≥ 80 |
